In ChEMBL document CHEMBL5291721, “A preclinical secondary pharmacology resource illuminates target-adverse drug reaction associations of marketed drugs” (Nat Commun, 2023):

Assays:
[1] = target: T1, Alpha-1A adrenergic receptor (Homo sapiens, UniProt P35348); type: functional, cell-based
T1 sequence (P35348 whole entry): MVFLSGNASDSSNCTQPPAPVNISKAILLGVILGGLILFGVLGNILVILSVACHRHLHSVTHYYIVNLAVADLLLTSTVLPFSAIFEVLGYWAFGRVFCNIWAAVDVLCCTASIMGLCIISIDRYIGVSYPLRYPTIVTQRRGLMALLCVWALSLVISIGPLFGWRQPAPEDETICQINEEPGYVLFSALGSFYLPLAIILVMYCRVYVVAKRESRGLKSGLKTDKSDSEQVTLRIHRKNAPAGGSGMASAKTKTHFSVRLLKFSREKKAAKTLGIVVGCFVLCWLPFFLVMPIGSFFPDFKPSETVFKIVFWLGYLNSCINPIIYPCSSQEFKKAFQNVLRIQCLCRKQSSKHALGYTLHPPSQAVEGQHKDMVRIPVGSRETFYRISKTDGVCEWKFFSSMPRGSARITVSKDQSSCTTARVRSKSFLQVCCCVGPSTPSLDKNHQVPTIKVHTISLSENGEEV

B2 bradykinin receptor = target: T2, B2 bradykinin receptor (Homo sapiens, UniProt P30411)
T2 sequence (P30411 whole entry): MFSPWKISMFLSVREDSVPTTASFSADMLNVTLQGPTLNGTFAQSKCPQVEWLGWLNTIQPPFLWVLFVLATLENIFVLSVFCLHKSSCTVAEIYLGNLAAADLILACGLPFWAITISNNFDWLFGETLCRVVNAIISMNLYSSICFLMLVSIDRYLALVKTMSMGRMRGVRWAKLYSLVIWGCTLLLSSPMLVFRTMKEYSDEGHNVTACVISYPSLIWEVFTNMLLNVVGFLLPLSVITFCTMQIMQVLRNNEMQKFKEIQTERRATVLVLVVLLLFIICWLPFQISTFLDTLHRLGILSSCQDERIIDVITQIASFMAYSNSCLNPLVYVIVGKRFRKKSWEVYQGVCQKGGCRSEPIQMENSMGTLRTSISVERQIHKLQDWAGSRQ

[2] = target: T3, 5-hydroxytryptamine receptor 1A (Homo sapiens, UniProt P08908); type: functional, cell-based
T3 sequence (P08908 whole entry): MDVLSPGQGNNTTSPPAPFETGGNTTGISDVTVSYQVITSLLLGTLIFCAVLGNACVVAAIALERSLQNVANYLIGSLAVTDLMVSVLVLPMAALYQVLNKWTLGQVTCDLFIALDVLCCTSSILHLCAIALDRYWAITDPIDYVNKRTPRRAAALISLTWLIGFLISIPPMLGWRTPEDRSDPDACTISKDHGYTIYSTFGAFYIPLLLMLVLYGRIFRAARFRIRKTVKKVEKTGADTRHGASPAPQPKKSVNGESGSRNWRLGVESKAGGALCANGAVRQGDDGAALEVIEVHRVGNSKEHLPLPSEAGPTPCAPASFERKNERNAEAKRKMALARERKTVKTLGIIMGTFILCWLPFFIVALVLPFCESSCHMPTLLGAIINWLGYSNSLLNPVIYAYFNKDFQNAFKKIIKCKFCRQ

[3] = target: T3, 5-hydroxytryptamine receptor 1A; type: functional, cell-based; remark: listed apart in the source
[4] = target: T4, 5-hydroxytryptamine receptor 2B (Homo sapiens, UniProt P41595); type: functional, cell-based
[5] = target: T4, 5-hydroxytryptamine receptor 2B; type: functional, cell-based; remark: listed apart in the source
[6] = target: Sodium-dependent noradrenaline transporter (Homo sapiens, UniProt P23975)
[7] = target: T5, Gastrin/cholecystokinin type B receptor (Homo sapiens, UniProt P32239)
T5 sequence (P32239 whole entry): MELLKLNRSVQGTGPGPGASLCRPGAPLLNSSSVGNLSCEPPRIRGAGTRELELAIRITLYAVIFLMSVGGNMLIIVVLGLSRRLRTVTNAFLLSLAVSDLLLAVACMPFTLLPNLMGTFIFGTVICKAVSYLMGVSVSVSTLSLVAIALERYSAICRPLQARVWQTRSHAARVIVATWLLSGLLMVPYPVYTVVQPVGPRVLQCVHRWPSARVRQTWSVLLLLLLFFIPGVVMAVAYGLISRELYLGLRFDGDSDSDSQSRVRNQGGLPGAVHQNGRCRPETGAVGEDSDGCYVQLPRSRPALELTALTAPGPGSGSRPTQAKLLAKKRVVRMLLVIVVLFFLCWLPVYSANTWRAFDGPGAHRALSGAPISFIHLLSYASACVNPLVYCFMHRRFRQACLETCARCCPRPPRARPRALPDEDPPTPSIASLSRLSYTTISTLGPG

Endothelin-1 receptor = target: T6, Endothelin-1 receptor (Homo sapiens, UniProt P25101)
T6 sequence (P25101 whole entry): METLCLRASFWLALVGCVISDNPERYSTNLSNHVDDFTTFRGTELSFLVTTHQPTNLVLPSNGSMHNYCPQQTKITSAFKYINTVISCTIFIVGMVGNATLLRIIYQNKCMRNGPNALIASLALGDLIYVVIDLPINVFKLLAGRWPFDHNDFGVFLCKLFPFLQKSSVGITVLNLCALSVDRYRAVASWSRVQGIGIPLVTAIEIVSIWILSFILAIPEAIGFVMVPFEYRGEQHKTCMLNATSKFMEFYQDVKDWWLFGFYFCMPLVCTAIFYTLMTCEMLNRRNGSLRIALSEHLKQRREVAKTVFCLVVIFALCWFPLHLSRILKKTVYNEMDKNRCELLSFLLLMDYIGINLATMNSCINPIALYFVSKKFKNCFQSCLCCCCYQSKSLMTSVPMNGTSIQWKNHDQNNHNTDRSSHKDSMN
Note: assay procedure not described here.

Sequence of Sodium-dependent noradrenaline transporter (P23975 whole entry): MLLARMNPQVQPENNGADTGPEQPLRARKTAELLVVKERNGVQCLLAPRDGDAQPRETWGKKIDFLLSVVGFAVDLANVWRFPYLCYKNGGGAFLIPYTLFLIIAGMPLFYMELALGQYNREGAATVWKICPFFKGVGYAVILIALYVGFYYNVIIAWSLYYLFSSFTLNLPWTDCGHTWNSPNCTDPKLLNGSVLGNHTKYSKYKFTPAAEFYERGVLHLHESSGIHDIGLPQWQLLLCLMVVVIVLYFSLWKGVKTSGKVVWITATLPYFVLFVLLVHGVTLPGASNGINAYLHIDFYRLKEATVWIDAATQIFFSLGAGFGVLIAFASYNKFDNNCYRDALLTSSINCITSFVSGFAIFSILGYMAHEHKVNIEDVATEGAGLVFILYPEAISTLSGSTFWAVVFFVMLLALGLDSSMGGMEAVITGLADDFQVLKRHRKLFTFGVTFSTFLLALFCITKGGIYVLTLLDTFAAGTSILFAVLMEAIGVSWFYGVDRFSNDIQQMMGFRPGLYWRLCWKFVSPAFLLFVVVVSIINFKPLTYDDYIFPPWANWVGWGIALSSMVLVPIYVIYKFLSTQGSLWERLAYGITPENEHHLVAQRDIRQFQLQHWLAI
T4 sequence (P41595 whole entry): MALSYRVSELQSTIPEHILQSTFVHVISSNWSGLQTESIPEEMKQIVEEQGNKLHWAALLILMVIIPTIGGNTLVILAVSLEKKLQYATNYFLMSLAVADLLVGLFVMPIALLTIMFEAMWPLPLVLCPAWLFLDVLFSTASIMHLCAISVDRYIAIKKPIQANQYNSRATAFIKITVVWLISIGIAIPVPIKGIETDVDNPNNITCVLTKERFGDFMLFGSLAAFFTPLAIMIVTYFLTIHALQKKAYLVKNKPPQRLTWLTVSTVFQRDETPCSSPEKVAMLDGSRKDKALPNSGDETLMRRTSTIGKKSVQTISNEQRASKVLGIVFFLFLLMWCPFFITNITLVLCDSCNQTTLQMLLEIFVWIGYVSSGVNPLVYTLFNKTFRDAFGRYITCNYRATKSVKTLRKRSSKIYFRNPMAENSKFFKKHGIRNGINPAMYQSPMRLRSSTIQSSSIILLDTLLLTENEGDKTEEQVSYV

Compound | AC50 [1] [µM] | AC50 (B2 bradykinin receptor) [µM] | AC50 [2] [µM] | AC50 [3] [µM] | AC50 [4] [µM] | AC50 [5] [µM] | AC50 [6] [µM] | AC50 [7] [µM] | AC50 (Endothelin-1 receptor) [µM]
O=C(O)COc1ccc(C(=O)c2cccs2)c(Cl)c1Cl | > 30 |  |  |  |  |  |  |  | 
O=C1C(CC[S+]([O-])c2ccccc2)C(=O)N(c2ccccc2)N1c1ccccc1 (configuration not stated) [SULFINPYRAZONE] |  | > 10 | > 30 | > 10 | > 30 | > 30 | > 10 |  | 
CC1=C(/C=C/C(C)=C/C=C/C(C)=C/C(=O)O)C(C)(C)CCC1 [TRETINOIN] | > 30 |  |  |  |  |  |  |  | 
CN(C)CCC[C@@]1(c2ccc(F)cc2)OCc2cc(C#N)ccc21 [ESCITALOPRAM] |  | > 30 | > 30 | > 30 | > 30 | 22 |  | > 30 | > 30
COc1cc2nc(N3CCN(C(=O)C4CCCO4)CC3)nc(N)c2cc1OC (configuration not stated) [TERAZOSIN] |  | > 30 | > 10 | > 10 | > 10 | > 10 | > 10 | > 30 | > 30
O=C1CCc2cc(OCCCCc3nnnn3C3CCCCC3)ccc2N1 [CILOSTAZOL] |  | > 30 | > 30 |  | > 30 | > 30 | > 30 | > 30 | > 30
C[C@@H](NCCCc1cccc(C(F)(F)F)c1)c1cccc2ccccc12 |  | > 3 | > 30 |  | > 30 |  | 7.2 | > 30 | > 30
C=C[C@H]1C[N@@]2CC[C@H]1C[C@@H]2[C@@H](O)c1ccnc2ccc(OC)cc12 [QUINIDINE] |  | > 30 | > 30 |  | 1.16 |  | > 30 | > 30 | 
CN(C)[C@@H]1C(O)=C(C(N)=O)C(=O)[C@@]2(O)C(O)=C3C(=O)c4c(O)ccc(Cl)c4[C@@](C)(O)[C@H]3C[C@@H]12 [CHLORTETRACYCLINE] | > 30 |  |  |  |  |  |  |  | 
C[C@]12C=CC(=O)N[C@@H]1CC[C@@H]1[C@@H]2CC[C@]2(C)[C@@H](C(=O)Nc3cc(C(F)(F)F)ccc3C(F)(F)F)CC[C@@H]12 [DUTASTERIDE] |  | > 10 | > 10 | > 10 | > 10 | > 10 | > 10 |  | 
COc1ccccc1Oc1c(NS(=O)(=O)c2ccc(C(C)(C)C)cc2)nc(-c2ncccn2)nc1OCCO [BOSENTAN] |  | > 30 | > 10 | > 10 | > 10 | > 10 | > 30 | > 30 | 
CCN1CCN(Cc2ccc(Nc3ncc(F)c(-c4cc(F)c5nc(C)n(C(C)C)c5c4)n3)nc2)CC1 [ABEMACICLIB] |  |  | > 30 | > 30 | > 30 | 19 | > 30 |  | > 30
COc1ccc(CC2c3cc(OC)c(OC)cc3CC[N+]2(C)CCC(=O)OCCCCCOC(=O)CC[N+]2(C)CCc3cc(OC)c(OC)cc3C2Cc2ccc(OC)c(OC)c2)cc1OC (configuration not stated) |  | > 30 | > 30 |  | > 30 | > 30 | 11.3 | > 30 | 
CN1C[C@H](C(=O)N[C@]2(C)O[C@@]3(O)[C@@H]4CCCN4C(=O)[C@H](Cc4ccccc4)N3C2=O)C=C2c3cccc4[nH]cc(c34)C[C@H]21 [ERGOTAMINE] |  |  | 0.22 |  | > 10 |  | > 30 |  | > 30
COc1ccccc1OCCNCC(O)COc1cccc2[nH]c3ccccc3c12 (configuration not stated) [CARVEDILOL] |  | > 30 | 0.04 |  | > 30 | 0.532 | 3.99 | > 30 | > 30
CN1C(C(=O)Nc2ccccn2)=C(O)c2ccccc2S1(=O)=O [PIROXICAM] |  | > 10 | > 10 | > 10 | > 10 | > 10 | > 10 |  | 
CN(CC1(C)CCCO1)S(=O)(=O)c1ccc(Cl)c(S(N)(=O)=O)c1 (configuration not stated) [MEFRUSIDE] |  |  |  | > 30 | > 30 | > 30 |  |  | 
C[C@]1(Cn2ccnn2)[C@H](C(=O)O)N2C(=O)C[C@H]2S1(=O)=O [TAZOBACTAM] | > 30 |  |  |  |  |  |  |  | 
C[N+](C)(C)C[C@H](O)CC(=O)[O-] [LEVOCARNITINE] | > 30 |  |  |  |  |  |  |  | 
C[C@@H](Oc1cc(-c2cnn(C3CCNCC3)c2)cnc1N)c1c(Cl)ccc(F)c1Cl [CRIZOTINIB] |  |  | > 10 | > 10 | > 30 | 2.7 | 7.96 | > 30 | > 30
CN(C)CCc1c[nH]c2ccc(Cn3cncn3)cc12 [RIZATRIPTAN] |  | > 30 |  |  | 14 | > 10 | > 10 | > 30 | > 30
O=C1CN(/N=C/c2ccc(-c3ccc([N+](=O)[O-])cc3)o2)C(O)=N1 [DANTROLENE] |  | > 10 | > 10 | > 10 | > 10 | > 10 | > 10 |  | 
CC(N)C12CC3CC(CC(C3)C1)C2 (configuration not stated) [RIMANTADINE] |  | > 10 | > 10 | > 10 | > 10 | > 10 | > 10 |  | 
C#C[C@]1(O)CC[C@H]2[C@@H]3CCC4=CC(=O)CC[C@@H]4[C@H]3C(=C)C[C@@]21CC [ETONOGESTREL] |  |  | > 30 | > 30 | > 30 | > 30 |  |  | 
C[C@H](CCC(=O)O)[C@H]1CC[C@H]2[C@@H]3[C@@H](O)C[C@@H]4C[C@H](O)CC[C@]4(C)[C@H]3CC[C@]12C [URSODIOL] |  |  | > 30 | > 30 | > 30 | > 30 | > 30 |  | > 30
CC(C)(C)NCC(O)c1cc(O)cc(O)c1 (configuration not stated) [TERBUTALINE] |  | > 30 |  |  |  |  | > 30 | > 30 | > 30
CC(S)C(=O)NCC(=O)O (configuration not stated) [TIOPRONIN] |  |  | > 30 | > 30 | > 30 | > 30 | > 30 |  | > 30
CCN(CC)CCNC(=O)c1c(C)[nH]c(/C=C2\C(=O)Nc3ccc(F)cc32)c1C [SUNITINIB] |  | 2.5 | > 30 |  | > 30 | 5.2 | 1.76 | > 10 | 8.3
C[C@H]1O[C@@H](n2cc(F)c(=O)[nH]c2=O)[C@H](O)[C@@H]1O [DOXIFLURIDINE] | > 30 |  |  |  |  |  |  |  | 
